# According to US7652047B2, “Phenylamino isothiazole carboxamidines as MEK inhibitors” (Ardea Biosciences, Inc., priority 2005, dated 2010):
# Biological target: T1, MEK1^CA (human GST-MEK1, constitutively active, Ser218Asp and Ser222Asp) (Homo sapiens, UniProt Q02750, S218D/S222D)
# T1 construct: GST; made in house; host or cells: Escherichia coli
# Assay: MEK1 enzymatic activity assay (MEK1^CA / ERK2 / MBP, [γ-33P]ATP incorporation)
# Format: biochemical
# Settings: Table 1, compounds of formula I; read-out: Avg IC50
# Description: Materials and preparation of reagents: Human GST-MEK1 and the constitutively active allele GST-MEK1^CA (harboring the mutations Ser218Asp and Ser222Asp) were subcloned into the […] expression vector pGEM4Z (Promega, Madison, Wis.) from the wild type human MEK1 cDNA. GST-MEK1^CA was expressed in Escherichia coli and partially purified using Glutathione Sepharose 4B affinity resin (Amersham Pharmacia Biotech, Piscataway, N.J.). The ERK2 allele was subcloned from MAPK2/Erk2 cDNA (wild type) in pUSEamp (Upstate Biotechnology, Inc., Waltham, Mass.) into the vector pET21a (Novagen, Madison, Wis.) resulting in an N-terminal histidine-tagged mouse ERK2 allele. […] Myelin basic protein (MBP) was purchased from Gibco BRL (Rockville, Md.). EasyTides adenosine 5′-triphosphate (ATP) ([γ-^33P]) (NEN Perkin Elmer, Wellesley, Mass.) was the source of radiolabel for all kinase reactions. Activated Raf-1 (truncated) and activated MAPKinase 2/ERK2 were purchased from Upstate, Inc. (Lake Placid, N.Y.). 4-20% Criterion Precast gels were purchased from Bio-Rad (Hercules, Calif.).
# A typical 25-microliter assay contained 0.002 nanomoles MEK1^CA, 0.02 nanomoles ERK2, 0.25 nanomoles MBP, 0.25 nanomoles unlabeled ATP, and 0.1 μCi [γ^33P] ATP. The screening assay essentially comprised four additions. Five μl of diluted compound were dispensed to 96-well assay plates. Ten μl of 2.5× enzyme cocktail (MEK1^CA and ERK2 only) were then added to each well followed by a pre-incubation for 30 minutes at ambient temperature. […] Finally, 100 μl of 10% trichloroacetic acid (TCA) were added and incubated for 30 minutes at room temperature to halt the reaction and precipitate radiolabeled protein products. Reaction products were harvested on glass fiber 96 well filter plates prewetted with water and 1% pyrophosphate. The filter plate was then washed 5 times with water. Water was displaced by absolute ethanol and the plate was allowed to air dry for 30 minutes at room temperature. A back seal was applied manually and 40 μl of scintillation cocktail were dispensed to each well. A top seal was applied and the plate was counted in the TopCount for two seconds per well.
# T1 sequence (Q02750 whole entry S218D/S222D): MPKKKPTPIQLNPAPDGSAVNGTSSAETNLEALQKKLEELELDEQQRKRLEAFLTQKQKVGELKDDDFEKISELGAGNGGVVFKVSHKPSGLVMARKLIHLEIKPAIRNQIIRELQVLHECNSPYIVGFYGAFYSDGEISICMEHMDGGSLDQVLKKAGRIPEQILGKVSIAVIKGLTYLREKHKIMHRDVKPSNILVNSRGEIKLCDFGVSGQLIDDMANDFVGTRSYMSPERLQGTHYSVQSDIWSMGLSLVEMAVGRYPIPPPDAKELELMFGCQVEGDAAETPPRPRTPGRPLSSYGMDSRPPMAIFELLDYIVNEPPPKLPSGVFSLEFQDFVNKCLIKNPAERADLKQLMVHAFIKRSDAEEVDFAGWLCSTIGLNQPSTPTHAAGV
row,IC50 [nM],SMILES
1,> 500,Oc1nsc(Nc2ccc(Oc3ccccc3)cc2)c1-c1noc(-c2ccccc2)n1 [compound 149]
2,> 500,CC(=O)NC(=N)c1c(O)nsc1Nc1ccc(Oc2ccccc2)cc1 [compound 150]
3,> 500,Cc1ccc(S(=O)(=O)NC(=N)c2c(O)nsc2Nc2ccc(Oc3ccccc3)cc2)cc1 [compound 151]
4,1 to 100,N=C(N[C@H]1CC[C@H](O)CC1)c1c(O)nsc1Nc1ccc(Oc2ccccc2)cc1 [compound 152]
5,100 to 500,CCC(CO)NC(=N)c1c(O)nsc1Nc1ccc(Oc2ccccc2)cc1 (centres unmarked) [compound 153]
6,1 to 100,CC(CO)/N=C(\N)c1c(O)nsc1Nc1ccc(Oc2ccccc2)cc1 (centres unmarked) [compound 154]
7,100 to 500,N=C(N[C@@H]1CCC[C@H]1O)c1c(O)nsc1Nc1ccc(Oc2ccccc2)cc1 [compound 155]
8,100 to 500,CC(O)CNC(=N)c1c(O)nsc1Nc1ccc(Oc2ccccc2)cc1 (centres unmarked) [compound 156]
9,100 to 500,CCCCC(CO)NC(=N)c1c(O)nsc1Nc1ccc(Oc2ccccc2)cc1 (centres unmarked) [compound 157]
10,100 to 500,N=C(NCCCCO)c1c(O)nsc1Nc1ccc(Oc2ccc(Cl)cc2)cc1 [compound 158]
11,1 to 100,C[C@H](NC(=N)c1c(O)nsc1Nc1ccc(Oc2ccccc2)cc1)[C@@H](O)c1ccccc1 [compound 159]
12,100 to 500,CCC[C@H]1CC[C@H](c2ccc(Nc3snc(O)c3C(=N)NC(C)C)cc2)CC1 [compound 160]
13,> 500,CCC[C@H]1CC[C@H](c2ccc(Nc3snc(O)c3C(=N)NCCO)cc2)CC1 [compound 161]
14,> 500,N#CNC(=N)c1c(O)nsc1Nc1ccc(Oc2ccccc2)cc1 [compound 162]
15,100 to 500,CC(C)C[C@H](CO)NC(=N)c1c(O)nsc1Nc1ccc(Oc2ccccc2)cc1 [compound 163]
16,1 to 100,N=C(NC(CO)CO)c1c(O)nsc1Nc1ccc(Oc2ccccc2)cc1 [compound 164]
17,100 to 500,CCC[C@H]1CC[C@H](c2ccc(Nc3snc(O)c3C(=N)NCC(C)(C)CO)cc2)CC1 [compound 165]
18,1 to 100,N=C(NCC(O)c1cccc(O)c1)c1c(O)nsc1Nc1ccc(Oc2ccccc2)cc1 (centres unmarked) [compound 166]
19,100 to 500,N=C(N[C@@H]1CCCC[C@H]1O)c1c(O)nsc1Nc1ccc(Oc2ccccc2)cc1 [compound 167]
20,> 500,N=C(N[C@H](CO)CC1CCCCC1)c1c(O)nsc1Nc1ccc(Oc2ccccc2)cc1 [compound 168]
21,100 to 500,CC(C)NC(=N)c1c(O)nsc1Nc1ccc(Oc2cncnc2)cc1 [compound 169]
22,100 to 500,CC(C)NC(=N)c1c(O)nsc1Nc1ccc(C2CCCCC2)cc1 [compound 170]
23,> 500,N=C(NCCO)c1c(O)nsc1Nc1ccc(Oc2cncnc2)cc1 [compound 171]
24,> 500,N=C(NCCO)c1c(O)nsc1Nc1ccc(C2CCCCC2)cc1 [compound 172]
25,1 to 100,CC(C)(C)NC(=N)c1c(O)nsc1Nc1ccc(Oc2ccccc2)cc1 [compound 173]

row,IC50 [nM],SMILES
1,1 to 100,C[C@@H](CO)NC(=N)c1c(O)nsc1Nc1ccc(Oc2ccccc2)cc1 [compound 174]
2,1 to 100,C[C@H](CO)NC(=N)c1c(O)nsc1Nc1ccc(Oc2ccccc2)cc1 [compound 175]
3,100 to 500,CC[C@@H](CO)NC(=N)c1c(O)nsc1Nc1ccc(Oc2ccccc2)cc1 [compound 176]
4,100 to 500,CC[C@H](CO)NC(=N)c1c(O)nsc1Nc1ccc(Oc2ccccc2)cc1 [compound 177]
5,1 to 100,COCC(C)NC(=N)c1c(O)nsc1Nc1ccc(Oc2ccccc2)cc1 (centres unmarked) [compound 178]
6,100 to 500,CC(C)C(CO)NC(=N)c1c(O)nsc1Nc1ccc(Oc2ccccc2)cc1 (centres unmarked) [compound 179]
7,100 to 500,CC(C)(C)C(CO)NC(=N)c1c(O)nsc1Nc1ccc(Oc2ccccc2)cc1 (centres unmarked) [compound 180]
8,> 500,COc1ccc(Nc2snc(O)c2-c2nnn[nH]2)c(OC)n1 [compound 181]
9,100 to 500,N=C(NCc1ccc(C(F)(F)F)nc1)c1c(O)nsc1Nc1cccc(Oc2ccccc2)c1 [compound 182]
10,1 to 100,CC(C)NC(=N)c1c(O)nsc1Nc1ccc(Oc2ccc(Cl)cc2)cc1 [compound 183]
11,> 500,COc1ccc(Nc2snc(O)c2C(=N)NCc2ccc(C(F)(F)F)nc2)c(OC)n1 [compound 184]
12,100 to 500,CC(=O)Oc1nsc(Nc2ccc(Oc3ccccc3)cc2)c1C(=N)NC(C)C [compound 185]
13,> 500,N=C(NCC(O)CO)c1c(O)nsc1Nc1ccc(C2CCCCC2)cc1 (centres unmarked) [compound 186]
14,> 500,CCCCCCCCCCOCC(O)CNC(=N)c1c(O)nsc1Nc1ccc(Oc2ccccc2)cc1 (centres unmarked) [compound 187]
15,100 to 500,CC(C)(CO)NC(=N)c1c(O)nsc1Nc1ccc(Oc2ccccc2)cc1 [compound 188]
16,100 to 500,N=C(NCC1(O)CCCCC1)c1c(O)nsc1Nc1ccc(Oc2ccccc2)cc1 [compound 189]
17,100 to 500,N=C(NC1(CO)CCCC1)c1c(O)nsc1Nc1ccc(Oc2ccccc2)cc1 [compound 190]
18,100 to 500,CC(CO)NC(=N)c1c(O)nsc1Nc1ccc(Oc2ccc(Cl)cc2)cc1 (centres unmarked) [compound 191]
19,100 to 500,N=C(NCCO)c1c(O)nsc1Nc1ccc(Oc2ccc(Cl)cc2)cc1 [compound 192]
20,> 500,CCC[C@H]1CC[C@H](c2ccc(Nc3snc(O)c3C(=N)NC[C@@H](O)CO)cc2)CC1 [compound 193]
21,> 500,CCn1sc(Nc2ccc(Oc3ccccc3)cc2)c(C(=N)NC(C)C)c1=O [compound 194]
22,> 500,CC(C)C(=O)O[C@H]1CC[C@H](c2ccc(Nc3snc(O)c3C(=N)NCC(O)CO)cc2)CC1 (some centres unmarked) [compound 195]
23,> 500,N=C(NCC(O)CO)c1c(O)nsc1Nc1ccc([C@H]2CC[C@H](O)CC2)cc1 (some centres unmarked) [compound 196]
24,100 to 500,CC(C)NC(=N)c1c(O)nsc1Nc1ccc([C@H]2CC[C@H](OC(=O)C(C)C)CC2)cc1 [compound 197]
25,1 to 100,CNC(=N)c1c(O)nsc1Nc1ccc(Oc2ccccc2)cc1 [compound 198]

row,IC50 [nM],SMILES
1,1 to 100,CCNC(=N)c1c(O)nsc1Nc1ccc(Oc2ccccc2)cc1 [compound 199]
2,1 to 100,C=CCNC(=N)c1c(O)nsc1Nc1ccc(Oc2ccccc2)cc1 [compound 200]
3,100 to 500,CCCNC(=N)c1c(O)nsc1Nc1ccc(Oc2ccccc2)cc1 [compound 201]
4,1 to 100,CC(C)CNC(=N)c1c(O)nsc1Nc1ccc(Oc2ccccc2)cc1 [compound 202]
5,> 500,N=C(NCC(O)O)c1c(O)nsc1Nc1ccc(Oc2ccc(F)cc2)cc1 [compound 203]
6,> 500,N=C(NCCO)c1c(O)nsc1Nc1ccc(Oc2ccc(F)cc2)cc1 [compound 204]
7,100 to 500,CC(C)NC(=N)c1c(O)nsc1Nc1ccc(Oc2ccc(F)cc2)cc1 [compound 205]
8,> 500,CC(CO)NC(=N)c1c(O)nsc1Nc1ccc(Oc2ccc(F)cc2)cc1 (centres unmarked) [compound 206]
9,> 500,N=C(NCCO)c1c(O)nsc1Nc1ccc(Oc2ccc(F)cc2)c(Br)c1 [compound 207]
10,> 500,N=C(NCC(O)O)c1c(O)nsc1Nc1ccc(Oc2ccc(F)cc2)c(Br)c1 [compound 208]
11,100 to 500,CC(CO)NC(=N)c1c(O)nsc1Nc1ccc(Oc2ccc(F)cc2)c(Br)c1 (centres unmarked) [compound 209]
12,100 to 500,N=C(NCC(O)O)c1c(O)nsc1Nc1ccc(Oc2ccccc2Cl)cc1 [compound 210]
13,> 500,CC(CO)NC(=N)c1c(O)nsc1Nc1ccc(Oc2ccccc2Cl)cc1 (centres unmarked) [compound 211]
14,100 to 500,CC(C)NC(=N)c1c(O)nsc1Nc1ccc(Oc2ccccc2Cl)cc1 [compound 212]
15,1 to 100,N=C(NCCO)c1c(O)nsc1Nc1ccc(Oc2ccccc2Cl)cc1 [compound 213]
16,> 500,N=C(NCC(O)CO)c1c(O)nsc1Nc1ccc(I)cc1 (centres unmarked) [compound 216]
17,> 500,N=C(NCCO)c1c(O)nsc1Nc1ccc(I)cc1 [compound 217]
18,1 to 100,CC(CO)NC(=N)c1c(O)nsc1Nc1ccc(/N=N/c2ccccc2)cc1 (centres unmarked) [compound 219]
19,> 500,CC(CO)NC(=N)c1c(O)nsc1Nc1ccc(OC2CCCCC2)cc1 (centres unmarked) [compound 220]
20,100 to 500,N=C(NCCO)c1c(O)nsc1Nc1ccc(Oc2ccc(Cl)cc2Cl)cc1 [compound 221]
21,100 to 500,CC(C)NC(=N)c1c(O)nsc1Nc1cc(Cl)cc(Cl)c1 [compound 224]
22,1 to 100,CC(C)NC(=N)c1c(O)nsc1Nc1ccc(Cl)cc1Cl [compound 225]
23,> 500,CC(C)NC(=N)c1c(O)nsc1Nc1ccc2c(c1)Cc1ccccc1-2 [compound 227]
24,1 to 100,N=C(NCC(O)O)c1c(O)nsc1Nc1ccc(Oc2ccc(Cl)cc2Cl)cc1 [compound 229]
